Test results from BindingDB's records for patent US11957687 (Regeneron Pharmaceuticals, 2024).

Molecular target: T1, 17-beta-hydroxysteroid dehydrogenase 13 (Homo sapiens, UniProt Q7Z5P4)
T1 sequence (Q7Z5P4 whole entry): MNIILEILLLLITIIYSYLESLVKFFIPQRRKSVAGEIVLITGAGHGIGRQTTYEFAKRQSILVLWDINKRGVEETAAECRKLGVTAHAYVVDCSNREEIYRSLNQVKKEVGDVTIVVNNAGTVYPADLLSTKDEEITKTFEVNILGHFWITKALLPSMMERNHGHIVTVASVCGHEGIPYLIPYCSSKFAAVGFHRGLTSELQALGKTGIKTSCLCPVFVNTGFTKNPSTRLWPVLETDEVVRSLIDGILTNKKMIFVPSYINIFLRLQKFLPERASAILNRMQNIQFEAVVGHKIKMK
Assay: HSD17B13 Enzymatic Blocking Assay (50nM)
Procedure: Compounds of the disclosure were screened for their ability to block HSD17B13 function using an enzymatic blocking assay. HSD17B13 activity was quantified using a NADH Glo luminescence assay (Promega, #Cat. No. G9062) to measure the formation of NADH from the oxidation of LTB4, a known HSD17B13 substrate. Compounds were over a 10-point dose curve using an Echo-555 liquid handling dispenser. HSD17B13 (SEQ ID NO: 1, expressed in E. coli) was added at […] a final concentration of 50 nM, depending on the assay run, in a buffer containing 0.2M Tris-HCl pH 7.5 containing 0.01% Triton-X into a low volume white 384-well assay plate. Compounds were incubated with the enzyme for 30 minutes at room temperature. The assay reaction was then initiated by addition of 10 μM LTB4 substrate (Cayman chemicals, Cat. No. 20110) and 500 μM NAD, and the reaction mixture was incubated for 1 or 2 hours at room temperature depending on the assay run. DMSO at a concentration of 0.5% was used as a negative control, and a ‘no substrate’ control was used as a positive control (100% inhibition) in the assay. […] Generation of NADH was detected in the luminescence mode on the Envision Perkin Elmer plate reader. The IC50 values were determined using Dotmatics analysis software.

IC50 [µM] | Compound
0.08 | CCCC1Cc2ccc(C)cc2C1NC(=O)c1ccc(C(F)(F)F)[nH]c1=O (configuration not stated) [US11957687, Compound 291]
3.45 | CC(C)(C)OC(=O)NCCc1cccc2c1CCCC2NC(=O)c1ccc(C(F)(F)F)[nH]c1=O (configuration not stated) [US11957687, Compound 301]
